Measured values taken from patent publication US20230138327A1, “COMPOSITIONS AND METHODS CONTAINING REDUCED NICOTINAMIDE RIBOSIDE FOR PREVENTION AND TREATMENT OF PANCREATIC DISEASES AND CONDITIONS” (SOCIETE DES PRODUITS NESTLE S.A., priority 2020, published 2023).
“Also recorded” adds a separate entry of the source.

Legend:
mice [1] = test: Tissue NAD+ levels in mice after intraperitoneal injection; type: in vivo; conditions: IP 500 mg/kg, after 1 h
Description: (§1) The above results prompted us to test whether NRH could act as an effective NAD+ precursor in vivo. For this, we first intraperitoneally (IP) injected mice with either NR or NRH (500 mg/kg). […] Importantly, NRH was detectable in circulation after IP injection.

INS1-cells = test: NAD+ levels in INS1-cells after NRH treatment; type: cell-based
mice [2] = test: Hepatic NAD+ levels in mice after oral administration; type: in vivo
Description: 8 week-old C57BI/6NTac mice were orally gavaged with either saline (as vehicle), NR (500 mg/kg) or NRH (500 mg/kg). After 1 hour, liver, skeletal muscle and kidney NAD levels were evaluated. All results are expressed as mean +/−SEM of n=5 mice per group. * indicates statistical difference at p<0.05 vs. vs. saline-treated mice. #indicates statistical difference at p<0.05 vs. NR treated mice.
Oral administration of NRH led to very similar results to those observed after IP administration. […] NRH was detectable in plasma 1 h after oral administration. In contrast, NR levels were undetectable at 1 h after NR administration.

[3] = Circulating NRH, NR and NAM in mice after intraperitoneal injection; type: in vivo
Source text: (§2) Levels of NRH and other NAD-related metabolites in biological samples were obtained by using a cold liquid-liquid extraction using a mixture of methanol:water:chloroform in 5:3:5 (v/v), from which the polar phase was recovered for hydrophilic interaction ultra-high performance liquid chromatography mass spectrometry (UHPLC-MS) analysis. The UHPLC consisted of a binary pump, a cooled autosampler, and a column oven (DIONEX Ultimate 3000 UHPLC+ Focused, Thermo Scientific), connected to a triple quadrupole spectrometer (TSQ Vantage, Thermo Scientific) equipped with a heated electrospray ionisation (H-ESI) source. Of each sample, 2 μL were injected into the analytical column (2.1 mm×150 mm, 5 μm pore size, 200 Å HILICON iHILIC®-Fusion(P)), guarded by a pre-column (2.1 mm×20 mm, 200 Å HILICON iHILIC®-Fusion(P) Guard Kit) operating at 35° C. The mobile phase (10 mM ammonium acetate at pH 9, A, and acetonitrile, B) was pumped at 0.25 mL/min flow rate over a linear gradient of decreasing organic solvent (0.5-16 min, 90-25% B), followed by re-equilibration for a total run time of 30 min. The MS operated in positive mode at 3500 V with multiple reaction monitoring (MRM). The software Xcalibur v4.1.31.9 (Thermo Scientific) was used for instrument control, data acquisition and processing. Retention time and mass detection was confirmed by authentic standards.
as §1

3T3 fibroblasts = test: NAD+ levels in 3T3 fibroblasts after NRH treatment; type: cell-based
INS-1E cells [4] = test: Lipotoxicity (palmitic acid)-induced pancreatic β-cell death, cell viability; type: cell-based; conditions: palmitic acid 0.4 mM, 24 hours, NRH 0.1 mM
Description: INS-1E cells were treated with BSA-conjugated palmitic acid (0.4 mM) for 24 hrs in the presence or absence of NRH (0.1 mM). PBS was used as vehicle for NRH, while fatty-acid free BSA was used as control for palmited treatment. After 24 hrs, cell viability was evaluated by luminescence using a commercial kit (Cell Title-Glow; Promega). All results are expressed as mean+/−SEM of n=8 experiments. * indicates P<0.05 vs. the respective vehicle treated group.
INS-1E cells were treated with BSA-conjugated palmitic acid (0.4 mM) for 24 hours in the presence or absence of NRH (0.1 mM). PBS was used as vehicle for NRH, while fatty-acid free BSA was used as control for palmited treatment. After 24 hours, cell viability was evaluated by luminescence using a commercial kit (Cell Title-Glow; Promega).

INS-1E cells [5] = test: Inflammatory cytokine (IL-1 b)-induced pancreatic β-cell death, cell viability; type: cell-based; conditions: IL-1 b 0.25 ng/ml, 24 hours, NRH 0.1 mM
Description: INS-1E cells were treated with Interleukin 1 b (IL-1 b; 0.25 ng/ml) for 24 hrs in the presence or absence of NRH (0.1 mM). PBS was used as vehicle for NRH. After 24 hrs, cell viability was evaluated by luminescence using a commercial kit (Cell Title-Glow; Promega). All results are expressed as mean+/−SEM of n=6 experiments. * indicates P<0.05 vs. the respective vehicle treated group.
INS-1E cells were treated with Interleukin 1 b (IL-1 b; 0.25 ng/ml) for 24 hours in the presence or absence of NRH (0.1 mM). PBS was used as vehicle for NRH. After 24 hours, cell viability was evaluated by luminescence using a commercial kit (Cell Title-Glow; Promega).

INS-1E cells [6] = test: Oxidative stress (H2O2)-induced pancreatic β-cell death, cell viability; type: cell-based; conditions: H2O2 0.4 mM, 24 hours, NRH 0.1 mM
Description: INS-1E cells were treated with hydrogen peroxide (H2O2; 0.4 mM) for 24 hrs in the presence or absence of NRH (0.1 mM). PBS was used as vehicle for NRH. After 24 hrs, cell viability was evaluated by lumiscence using a commercial kit (Cell Title-Glow; Promega). All results are expressed as mean+/−SEM of n=5 experiments. * indicates P<0.05 vs. the respective vehicle treated group.
INS-1E cells were treated with hydrogen peroxide (H2O2; 0.4 mM) for 24 hours in the presence or absence of NRH (0.1 mM). PBS was used as vehicle for NRH. After 24 hours, cell viability was evaluated by luminescence using a commercial kit (Cell Title-Glow; Promega).

[7] = Description: NR degradation to NAM has been proposed as a limitation for its pharmacological efficacy. To evaluate whether NRH was also susceptible to degradation to NAM, we spiked NRH or NR in isolated mouse plasma. […] We also tested the stability of NRH in other matrixes. […] Finally, we also certified NRH stability in water (pH=7, at room temperature) for 48 h.
[8] = Stability of NRH or NR spiked in isolated mouse plasma; type: in vitro ADME
Source text: as §2

In the case of `NC(=O)C1=CN([C@@H]2O[C@H](CO)[C@@H](O)[C@H]2O)C=CC1` [NRH], the “NAD+ levels in kidney” value (mice [1]) is reported as “increased NAD+ levels”, the “NAD+ levels in liver” value (mice [1]) is reported as “increased NAD+ levels” and the “NAD+ levels in muscle” value (mice [1]) is reported as “increased NAD+ levels”. The “NAD+ levels” value (INS1-cells) was “highly elevated”, the “Effect on hepatic NAD+ levels compared with NR” value (mice [2]) was “more potent effect on hepatic NAD+ levels than NR” and the “NAM levels in circulation” value ([3]; mice, IP 500 mg/kg) was “only a very mild increase”. The NR in circulation ([3]; mouse, in vivo, ip) was “much higher levels than those detected after NR injection itself”, the NRH in circulation ([3]; mouse, in vivo, ip) was “detectable” and the “NAD+ levels” value (3T3 fibroblasts) was “highly elevated”. The “Cell viability under BSA-conjugated palmitic acid” value (INS-1E cells [4]) was “protects against lipotoxicity-induced pancreatic β-cell death”, the “Cell viability under Interleukin 1 b” value (INS-1E cells [5]) was “protects against inflammatory citokyne-induced pancreatic β-cell death” and the “Cell viability under hydrogen peroxide” value (INS-1E cells [6]) was “protects against oxidative stress-induced pancreatic β-cell death”. The “Degradation to NAM in FBS supplemented media” value [7] was “did not degrade to NAM”, the “Compound levels in isolated mouse plasma” value ([8]; 2 h of incubation) was “remained stable” and the “Generation of NAM in isolated mouse plasma” value ([8]; 2 h of incubation) was “not generated; also recorded: did not significantly alter NAM levels”. The “NR production in isolated plasma” value ([8]; NRH incubation in isolated plasma) was “did not lead to NR production”.
